# From patent publication US12564194B2, “Herbicide mixture, herbicidal composition, method and kit for controlling undesired vegetation” (Adama Agan Ltd., priority 2020, dated 2026)
# Columns and labels:
# Format in all cases: in vivo
# Lolium multiflorum Lamk = assay: Soil sealing treatment pot experiment for controlling Lolium multiflorum Lamk (Example 2); conditions: 35 days
# Aegilops tauschii [1] = assay: Soil sealing treatment pot experiment for controlling Aegilops tauschii (Example 1)
# From the text: (§1) Referring to an article of Colby, S. R. i.e., Calculation of the synergistic and antagonistic response of herbicide combinations. Weeds 1967, 15, pp. 20-22 (which is incorporated herein in its entirety by reference), the theoretical value E0 of a given mixture of three active ingredients may be predicted according to the following equation, then evaluating whether there is synergy.
# (§2) [formula] • wherein: • E0 is the theoretical fresh weight survival rate for the mixture of pyroxasulfone, chlorotoluron and […]; • X is the measured fresh weight survival rate for pyroxasulfone used alone in the same dosage as that in the mixture; • Y is the measured fresh weight survival rate for chlorotoluron used alone in the same dosage as that in the mixture; • Z is the measured fresh weight survival rate for mesosulfuron-methyl used alone in the same dosage as that in the mixture. • E is the measured fresh weight survival rate for the mixture of pyroxasulfone, chlorotoluron and mesosulfuron-methyl. • E0-E value is calculated to evaluate the combined effect of pyroxasulfone, chlorotoluron and mesosulfuron-methyl on the selected weeds.
# (§3) In this example, the herbicidal activity of a mixture of pyroxasulfone, chlorotoluron and mesosulfuron-methyl for soil sealing treatment to control Aegilops tauschii is investigated by a pot experiment method under the conditions of a glass greenhouse. This example is carried out in accordance with “NY/T 1155.4-2006 Guidelines for Indoor Bioassay Tests of Pesticides, Herbicides Part 4: Activity Determination Tests, Stem and Leaf Spray Method”.
# (§4) • Pyroxasulfone: pyroxasulfone (850 g/Kg, WG) from Adama Agan LTD. • Chlorotoluron: chlorotoluron (90 wt %, WG) from Adama Agan LTD. • Mesosulfuron-methyl: Sigma (30 g/L, OD) from Bayer AG. • Test location: Greenhouse of Institute of Plant Protection, Shandong Academy of Agricultural Sciences • Cultivation of test materials: The test soil is formed by mixing the 20 cm layer loam on the ground surface and the culture medium in a ratio of 3:1 as cultivation soil.
# (§5) The test weeds are cultivated in a glass greenhouse at a temperature of 15-30° C. and natural light. A certain amount of Aegilops tauschil seeds are sown in a plastic pot with a diameter of 9 cm, covering with 1-2 mm soil, and putting them in an enamel dish filled with water. The bottom infiltration method is used to water them, waiting for the water to seep to the soil surface, and then transferring to a glass greenhouse for cultivation. The agents are applied on the second day after sowing Aegilops tauschii seeds.
# (§6) For each active ingredient, the multiple dilution method is used to obtain the other five lower dosages from the highest dosage. A certain amount of agent is measured by pipette or balance, adding it directly to the water, and then diluting it to the required dosage by the multiple dilution method.
# (§7) Spraying treatment: ASS-4 automatic control spraying system with a fan-shaped nozzle is used indoors to spray agent, the running speed is adjusted based on nozzle pressure, flow rate, etc. to spray 50 mL of chemical solution on the actual spray area of 1.1 m^2 (equivalent to 30 liters per mu), arranging the plastic pots to be processed on the spraying table evenly, and spraying evenly. The spraying pressure is 0.35 MPa, and the flow rate of the fan-shaped nozzle is 800 mL/min, spraying in order from low dosage to high dosage. Each treatment is repeated 3 times. After spraying, let it dry for one day, placing it in a glass greenhouse, and watering it regularly to keep moist.
# Application time and frequency: the experiment is conducted on the second day after sowing Aegilops tauschii seeds, and the soil is evenly sprayed. The application time is Mar. 10, 2020, with one application.
# Weed investigation method and time: after applying the agent, the symptoms of weed damage (such as growth inhibition, chlorosis, deformity, etc.) are recorded in detail. […]
# Aegilops tauschii [2] = assay: Soil sealing treatment pot experiment for controlling Aegilops tauschii, more mixing ratios (Example 3)
# From the text: as §1, §2, §3, §4, §5, §6, §7
# Weed investigation method and time: after applying the agent, the symptoms of weed damage (such as growth inhibition, chlorosis, deformity, etc.) are recorded in detail. After 35 days, the fresh weight of aerial part of the weeds in each treatment is weighed, and the measured fresh weight inhibition rate and the measured fresh weight survival rate for each treatment are calculated according to the following equations: […]
smiles,measurement,setting,value
"Cc1ccc(NC(=O)N(C)C)cc1Cl [chlorotoluron, 3-(3-chloro-4-methylphenyl)-N,N-dimethylurea]",Measured fresh weight survival rate (%) - E,Lolium multiflorum Lamk; 70.3125 gai/ha,96.7%
same,Measured fresh weight survival rate (%) - E,Lolium multiflorum Lamk; 140.625 gai/ha,91.21%
same,Measured fresh weight survival rate (%) - E,Lolium multiflorum Lamk; 281.25 gai/ha,87.91%
same,Measured fresh weight survival rate (%) - E,Lolium multiflorum Lamk; 562.5 gai/ha,83.52%
same,Measured fresh weight survival rate (%) - E,Lolium multiflorum Lamk; 1125 gai/ha,25.27%
same,Measured fresh weight survival rate (%) - E,Lolium multiflorum Lamk; 2250 gai/ha,0%
same,inhibition at 70.3125 g/ha,"Lolium multiflorum Lamk; Lolium multiflorum, soil, 840 h, 70.3125 gai/ha, read-out: Measured fresh weight inhibition rate (%)",3.3%
same,inhibition at 140.625 g/ha,"Lolium multiflorum Lamk; Lolium multiflorum, soil, 840 h, 140.625 gai/ha, read-out: Measured fresh weight inhibition rate (%)",8.79%
same,inhibition at 281.25 g/ha,"Lolium multiflorum Lamk; Lolium multiflorum, soil, 840 h, 281.25 gai/ha, read-out: Measured fresh weight inhibition rate (%)",12.1%
same,inhibition at 562.5 g/ha,"Lolium multiflorum Lamk; Lolium multiflorum, soil, 840 h, 562.5 gai/ha, read-out: Measured fresh weight inhibition rate (%)",16.5%
same,inhibition at 1125 g/ha,"Lolium multiflorum Lamk; Lolium multiflorum, soil, 840 h, 1125 gai/ha, read-out: Measured fresh weight inhibition rate (%)",74.7%
same,inhibition at 2250 g/ha,"Lolium multiflorum Lamk; Lolium multiflorum, soil, 840 h, 2250 gai/ha, read-out: Measured fresh weight inhibition rate (%)",100%
same,Measured fresh weight survival rate (%) - E,"Aegilops tauschii [1]; 70.3125 gai/ha, 35 days",102.6%
same,Measured fresh weight survival rate (%) - E,"Aegilops tauschii [1]; 140.625 gai/ha, 35 days",101.3%
same,Measured fresh weight survival rate (%) - E,"Aegilops tauschii [1]; 281.25 gai/ha, 35 days",92.21%
same,Measured fresh weight survival rate (%) - E,"Aegilops tauschii [1]; 562.5 gai/ha, 35 days",81.82%
same,Measured fresh weight survival rate (%) - E,"Aegilops tauschii [1]; 1125 gai/ha, 35 days",72.73%
same,Measured fresh weight survival rate (%) - E,"Aegilops tauschii [1]; 2250 gai/ha, 35 days",36.36%
same,inhibition at 70.3125 g/ha,"Aegilops tauschii [1]; Aegilops tauschii, soil, 840 h, 70.3125 gai/ha, 35 days, read-out: Measured fresh weight inhibition rate (%)",-2.6%
same,inhibition at 140.625 g/ha,"Aegilops tauschii [1]; Aegilops tauschii, soil, 840 h, 140.625 gai/ha, 35 days, read-out: Measured fresh weight inhibition rate (%)",-1.3%
same,inhibition at 281.25 g/ha,"Aegilops tauschii [1]; Aegilops tauschii, soil, 840 h, 281.25 gai/ha, 35 days, read-out: Measured fresh weight inhibition rate (%)",7.79%
same,inhibition at 562.5 g/ha,"Aegilops tauschii [1]; Aegilops tauschii, soil, 840 h, 562.5 gai/ha, 35 days, read-out: Measured fresh weight inhibition rate (%)",18.2%
same,inhibition at 1125 g/ha,"Aegilops tauschii [1]; Aegilops tauschii, soil, 840 h, 1125 gai/ha, 35 days, read-out: Measured fresh weight inhibition rate (%)",27.3%
same,inhibition at 2250 g/ha,"Aegilops tauschii [1]; Aegilops tauschii, soil, 840 h, 2250 gai/ha, 35 days, read-out: Measured fresh weight inhibition rate (%)",63.6%
same,control effect on Aegilops tauschii,"Aegilops tauschii [1]; single active ingredient, summary of Table 2",certain effect
same,Actual fresh weight survival rate (%) - E,Aegilops tauschii [2]; 562.5 gai/ha,80.2%
same,Actual fresh weight survival rate (%) - E,Aegilops tauschii [2]; 1125 gai/ha,72.4%
same,Actual fresh weight survival rate (%) - E,Aegilops tauschii [2]; 2250 gai/ha,52.6%
same,inhibition at 562.5 g/ha,"Aegilops tauschii [2]; Aegilops tauschii, soil, 562.5 gai/ha, read-out: Actual fresh weight inhibition rate %",19.8%
same,inhibition at 1125 g/ha,"Aegilops tauschii [2]; Aegilops tauschii, soil, 1125 gai/ha, read-out: Actual fresh weight inhibition rate %",27.6%
same,inhibition at 2250 g/ha,"Aegilops tauschii [2]; Aegilops tauschii, soil, 2250 gai/ha, read-out: Actual fresh weight inhibition rate %",47.4%
